Assay results from patent US12336981B2, “Compounds and compositions for the inhibition of NAMPT” (Valo Health, Inc., priority 2010, dated 2025).
Like-named read-outs stand apart in the source and are kept apart here.

How the values were obtained:
NAMPT = target: T1, NAMPT (Homo sapiens, UniProt P43490); assay: Biochemical inhibition assay: NAMPT enzymatic reaction, NMN quantified by mass spectrometry; conditions: read-out: Biochem IC50
T1 construct: His tag; host or cells: E. coli
In short: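 Inhibition of E. coli-expressed His-tagged human NAMPT, measured as NMN formation by mass spectrometry after a 30 min room-temperature reaction containing 1 μM NAM, 100 μM PRPP and 2.5 mM ATP.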

A2780 cells = assay: In-vitro cell proliferation assay (SRB), A2780 cells; assay type: cell-based; conditions: Homo sapiens, A2780, 72 h, A2780 cells, 72 hours, read-out: A2780 IC50
In short: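 Cells were plated overnight at 37° C., 5% CO2, then exposed to serially diluted compounds (0.1% DMSO final) for 72 hours. Viable cells were measured by sulforhodamine B staining after TCA fixation, read at 570 nm; media-only background was subtracted before % inhibition was calculated.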

T1 sequence (P43490 whole entry): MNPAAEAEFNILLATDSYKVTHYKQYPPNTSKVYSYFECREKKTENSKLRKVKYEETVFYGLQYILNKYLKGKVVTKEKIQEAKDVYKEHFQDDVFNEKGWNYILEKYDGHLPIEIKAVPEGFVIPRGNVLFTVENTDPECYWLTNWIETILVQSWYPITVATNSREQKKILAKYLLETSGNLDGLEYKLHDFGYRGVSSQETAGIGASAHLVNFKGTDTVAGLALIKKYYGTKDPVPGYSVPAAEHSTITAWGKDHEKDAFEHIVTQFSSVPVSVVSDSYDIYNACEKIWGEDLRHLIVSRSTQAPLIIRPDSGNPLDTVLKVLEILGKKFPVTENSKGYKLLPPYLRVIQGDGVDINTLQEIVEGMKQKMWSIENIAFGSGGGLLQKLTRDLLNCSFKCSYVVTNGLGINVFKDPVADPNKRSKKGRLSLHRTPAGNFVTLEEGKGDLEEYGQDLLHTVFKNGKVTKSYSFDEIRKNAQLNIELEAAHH

## O=C(NCc1ccc(S(=O)(=O)c2cc(F)cc(C(F)(F)F)c2)cc1)c1cnc2nccn2c1
NAMPT; NAMPT enzymatic assay
  IC50: 5.9 nM
A2780 cells; SRB
  IC50: 1.1 nM

## O=C(NCc1ccc(S(=O)(=O)c2ccc(C(F)(F)F)cc2F)cc1)c1ccc2nccn2c1
NAMPT; NAMPT enzymatic assay
  IC50: 15.6 nM
A2780 cells; SRB
  IC50: 15.7 nM

## O=C(NCc1ccc(S(=O)(=O)Nc2ccc(Cl)cc2OC(F)(F)F)cc1)c1cc2cnccc2[nH]1 [N-[(4-{[4-chloro-2-(trifluoromethoxy)phenyl]sulfamoyl}phenyl)methyl]-1H-pyrrolo[3,2-c]pyridine-2-carboxamide]
NAMPT; NAMPT enzymatic reaction
  IC50: 2 nM
A2780 cells; SRB assay
  IC50: 2 nM

## CS(=O)(=O)c1ccc(S(=O)(=O)c2ccc(CNC(=O)c3cnc4[nH]ncc4c3)cc2)cc1 [N-({4-[(4-methanesulfonylbenzene)sulfonyl]phenyl}methyl)-1H-pyrazolo[3,4-b]pyridine-5-carboxamide]
NAMPT; NAMPT enzymatic reaction
  IC50: 29.3 nM
A2780 cells; SRB
  IC50: 23.8 nM

## COc1cc(F)ccc1S(=O)(=O)c1ccc(CNC(=O)c2cc3ccncc3s2)cc1 [N-({4-[(4-fluoro-2-methoxybenzene)sulfonyl]phenyl}methyl)thieno[2,3-c]pyridine-2-carboxamide]
NAMPT; NAMPT enzymatic reaction
  IC50: 9 nM
A2780 cells; SRB assay
  IC50: 6.5 nM

## CCOc1ccc(S(=O)(=O)c2ccc(CNC(=O)c3cnc4nccn4c3)cc2)c(C)c1 [N-({4-[(4-ethoxy-2-methylbenzene)sulfonyl]phenyl}methyl)imidazo[1,2-a]pyrimidine-6-carboxamide]
NAMPT; NAMPT enzymatic reaction
  IC50: 11.7 nM
A2780 cells; SRB
  IC50: 60.7 nM

## CCCOc1ccc(S(=O)(=O)c2ccc(CNC(=O)c3ccc4nccn4c3)cc2)cc1F
NAMPT; NAMPT enzymatic reaction
  IC50: 22.1 nM
A2780 cells; SRB
  IC50: 4.4 nM

## O=C(NCc1ccc(S(=O)(=O)c2ccc(-n3cccn3)c(F)c2)cc1)c1cnc2[nH]ncc2c1
NAMPT; NAMPT enzymatic assay
  IC50: 13.1 nM
A2780 cells; SRB
  IC50: 3.3 nM

## Cc1cccc(S(=O)(=O)c2ccc(CNC(=O)c3cc4cnccc4[nH]3)cc2)c1 [N-({4-[(3-methylbenzene)sulfonyl]phenyl}methyl)-1H-pyrrolo[3,2-c]pyridine-2-carboxamide]
NAMPT; NAMPT enzymatic reaction
  IC50: 9 nM
A2780 cells; SRB assay
  IC50: 4 nM

## CCC[C@@H](O)c1ccc(S(=O)(=O)c2ccc(CNC(=O)c3cc4ccncc4o3)cc2)cc1
NAMPT; NAMPT enzymatic assay
  IC50: 28.5 nM
A2780 cells; SRB
  IC50: 12.2 nM

## N#Cc1cccc(S(=O)(=O)c2ccc(CNC(=O)c3cnc4nccn4c3)cc2)c1
NAMPT; NAMPT enzymatic reaction
  IC50: 5.9 nM
A2780 cells; SRB
  IC50: 19.2 nM

## Cc1ccc(Cl)c(S(=O)(=O)c2ccc(CNC(=O)c3cc4cnccc4[nH]3)cc2)c1
NAMPT; NAMPT enzymatic reaction
  IC50: 18.8 nM
A2780 cells; SRB
  IC50: 9.1 nM

## COc1ccc(C(C)(C)C)cc1S(=O)(=O)c1ccc(CNC(=O)c2cc3cnccc3[nH]2)cc1 [N-({4-[(5-tert-butyl-2-methoxybenzene)sulfonyl]phenyl}methyl)-1H-pyrrolo[3,2-c]pyridine-2-carboxamide]
NAMPT; NAMPT enzymatic reaction
  IC50: 647 nM
A2780 cells; SRB assay
  IC50: 6 nM

## CCOc1cccc(S(=O)(=O)c2ccc(CNC(=O)c3cnc4nccn4c3)cc2)c1F
NAMPT; NAMPT enzymatic reaction
  IC50: 4 nM
A2780 cells; SRB
  IC50: 19.7 nM

## Cc1ccc(F)cc1S(=O)(=O)c1ccc(CNC(=O)c2cnc3[nH]ncc3c2)cc1 [N-({4-[(5-fluoro-2-methylbenzene)sulfonyl]phenyl}methyl)-1H-pyrazolo[3,4-b]pyridine-5-carboxamide]
NAMPT; NAMPT enzymatic reaction
  IC50: 20.4 nM
A2780 cells; SRB
  IC50: 59.7 nM

## COc1cccc(Cl)c1S(=O)(=O)c1ccc(CNC(=O)c2cc3cnccc3[nH]2)cc1 [N-({4-[(2-chloro-6-methoxybenzene)sulfonyl]phenyl}methyl)-1H-pyrrolo[3,2-c]pyridine-2-carboxamide]
NAMPT; NAMPT enzymatic reaction
  IC50: 13 nM
A2780 cells; SRB assay
  IC50: 3 nM

## CCCCc1ccc(S(=O)(=O)c2ccc(CNC(=O)c3cc4cnccc4[nH]3)cc2)cc1
NAMPT; NAMPT enzymatic reaction
  IC50: 14.6 nM
A2780 cells; SRB
  IC50: 35.8 nM

## Cc1nc(C)c(S(=O)(=O)c2ccc(CNC(=O)c3cc4ccncc4s3)cc2)s1 [N-{[4-(dimethyl-1,3-thiazole-5-sulfonyl)phenyl]methyl}thieno[2,3-c]pyridine-2-carboxamide]
NAMPT; NAMPT enzymatic assay
  IC50: 1.3 nM
A2780 cells; SRB
  IC50: 3 nM

## N#CC1(c2ccc(S(=O)(=O)c3ccc(CNC(=O)c4cc5ccncc5o4)cc3)cc2)CCCC1
NAMPT; NAMPT enzymatic assay
  IC50: 8 nM
A2780 cells; SRB
  IC50: 6 nM

## COc1ccc(S(=O)(=O)c2ccc(CNC(=O)c3ccc4nccn4c3)cc2)c(OC)c1 [N-({4-[(2,4-dimethoxybenzene)sulfonyl]phenyl}methyl)imidazo[1,2-a]pyridine-6-carboxamide]
NAMPT; NAMPT enzymatic reaction
  IC50: 58.2 nM
A2780 cells; SRB
  IC50: 15.1 nM

## Cc1ccc(S(=O)(=O)c2ccc(CNC(=O)c3cc4cnccc4[nH]3)cc2)c(C)c1 [N-({4-[(2,4-dimethylbenzene)sulfonyl]phenyl}methyl)-1H-pyrrolo[3,2-c]pyridine-2-carboxamide]
NAMPT; NAMPT enzymatic assay
  IC50: 21 nM
A2780 cells; SRB
  IC50: 12 nM

## O=C(NCc1ccc(S(=O)(=O)c2ccc(F)cc2C(F)(F)F)cc1)c1ccc2nccn2c1
NAMPT; NAMPT enzymatic assay
  IC50: 4 nM
A2780 cells; SRB
  IC50: 15 nM

## Cc1c(F)cccc1S(=O)(=O)c1ccc(CNC(=O)c2cnc3nccn3c2)cc1
NAMPT; NAMPT enzymatic reaction
  IC50: 8.1 nM
A2780 cells; SRB
  IC50: 65.6 nM

## CCOc1cc(S(=O)(=O)c2ccc(CNC(=O)c3cnc4nccn4c3)cc2)ccc1F [N-({4-[(3-ethoxy-4-fluorobenzene)sulfonyl]phenyl}methyl)imidazo[1,2-a]pyrimidine-6-carboxamide]
NAMPT; NAMPT enzymatic reaction
  IC50: 0.3 nM
A2780 cells; SRB
  IC50: 7.8 nM

## N#Cc1ccc(S(=O)(=O)c2ccc(CNC(=O)c3cc4cnccc4[nH]3)cc2)cc1 [N-({4-[(4-cyanobenzene)sulfonyl]phenyl}methyl)-1H-pyrrolo[3,2-c]pyridine-2-carboxamide]
NAMPT; NAMPT enzymatic reaction
  IC50: 11.1 nM
A2780 cells; SRB
  IC50: 25.1 nM

## CC(C)(C)c1cccc(S(=O)(=O)c2ccc(CNC(=O)c3cnc4nccn4c3)cc2)c1
NAMPT; NAMPT enzymatic reaction
  IC50: < 0.65 nM
A2780 cells; SRB
  IC50: 1.2 nM

## O=C(NCc1ccc(S(=O)(=O)c2ccc(F)c(F)c2)cc1)c1cc2cnccc2[nH]1 [N-({4-[(3,4-difluorobenzene)sulfonyl]phenyl}methyl)-1H-pyrrolo[3,2-c]pyridine-2-carboxamide]
NAMPT; NAMPT enzymatic reaction
  IC50: 13 nM
A2780 cells; SRB assay
  IC50: 14 nM

## Cc1cc(F)cc(S(=O)(=O)c2ccc(CNC(=O)c3cnc4nccn4c3)cc2)c1
NAMPT; NAMPT enzymatic reaction
  IC50: 1.5 nM
A2780 cells; SRB
  IC50: 5.4 nM

## CCNC(=O)c1ccc(S(=O)(=O)c2ccc(CNC(=O)c3cnc4[nH]ncc4c3)cc2)cc1 [N-[(4-{[4-(ethylcarbamoyl)benzene]sulfonyl}phenyl)methyl]-1H-pyrazolo[3,4-b]pyridine-5-carboxamide]
NAMPT; NAMPT enzymatic assay
  IC50: 103 nM
A2780 cells; SRB
  IC50: 96.8 nM

## CC(C)NC(=O)c1cc(S(=O)(=O)c2ccc(CNC(=O)c3cnc4[nH]ncc4c3)cc2)ccc1F [N-{[4-({4-fluoro-3-[(propan-2-yl)carbamoyl]benzene}sulfonyl)phenyl]methyl}-1H-pyrazolo[3,4-b]pyridine-5-carboxamide]
NAMPT; NAMPT enzymatic assay
  IC50: 85.2 nM
A2780 cells; SRB
  IC50: 63.1 nM

## O=C(NCc1ccc(S(=O)(=O)c2ccc(N3CCOCC3)cc2)cc1)c1cc2ccncc2s1
NAMPT; NAMPT enzymatic assay
  IC50: 1.6 nM
A2780 cells; SRB
  IC50: 1.5 nM

## CC(C)c1ccc(S(=O)(=O)c2ccc(CNC(=O)c3cnc4nccn4c3)cc2)cc1
NAMPT; NAMPT enzymatic assay
  IC50: 1.7 nM
A2780 cells; SRB
  IC50: 8.1 nM

## COc1ccc(S(=O)(=O)c2ccc(CNC(=O)c3cnc4[nH]ncc4c3)cc2)c(C(F)(F)F)c1 [N-[(4-{[4-methoxy-2-(trifluoromethyl)benzene]sulfonyl}phenyl)methyl]-1H-pyrazolo[3,4-b]pyridine-5-carboxamide]
NAMPT; NAMPT enzymatic assay
  IC50: 86.8 nM
A2780 cells; SRB
  IC50: 62.8 nM

## O=C(NCc1ccc(S(=O)(=O)N2CCCCC2)cc1)c1cc2cnccc2s1 [N-{[4-(piperidine-1-sulfonyl)phenyl]methyl}thieno[3,2-c]pyridine-2-carboxamide]
NAMPT; NAMPT enzymatic reaction
  IC50: 886 nM
A2780 cells; SRB assay
  IC50: 10000 nM

## COc1cc(F)ccc1S(=O)(=O)c1ccc(CNC(=O)c2ccc3nccn3c2)cc1 [N-({4-[(4-fluoro-2-methoxybenzene)sulfonyl]phenyl}methyl)imidazo[1,2-a]pyridine-6-carboxamide]
NAMPT; NAMPT enzymatic reaction
  IC50: 19.3 nM
A2780 cells; SRB
  IC50: 7.05 nM

## COc1ccc(S(=O)(=O)c2ccc(CNC(=O)c3ccc4nccn4c3)cc2)cc1C [N-({4-[(4-methoxy-3-methylbenzene)sulfonyl]phenyl}methyl)imidazo[1,2-a]pyridine-6-carboxamide]
NAMPT; NAMPT enzymatic reaction
  IC50: 14.1 nM
A2780 cells; SRB
  IC50: 5.32 nM

## O=C(NCc1ccc(S(=O)(=O)c2ccc(C(F)(F)F)c(F)c2)cc1)c1cnc2nccn2c1
NAMPT; NAMPT enzymatic assay
  IC50: 4.1 nM
A2780 cells; SRB
  IC50: 6.9 nM

## O=C(NCc1ccc(S(=O)(=O)c2cccc(OCCN3CCOCC3)c2)cc1)c1cnc2nccn2c1
NAMPT; NAMPT enzymatic assay
  IC50: 3.1 nM
A2780 cells; SRB
  IC50: 24.7 nM

## O=C(Nc1ccc(CNC(=O)c2cc3cnccc3[nH]2)cc1)c1ccccc1 [N-[(4-benzamidophenyl)methyl]-1H-pyrrolo[3,2-c]pyridine-2-carboxamide]
NAMPT; NAMPT enzymatic reaction
  IC50: 19 nM
A2780 cells; SRB assay
  IC50: 4 nM

## COc1ccc(OC)c(S(=O)(=O)c2ccc(CNC(=O)c3cc4ccncc4o3)cc2)c1OC
NAMPT; NAMPT enzymatic reaction
  IC50: 39.9 nM
A2780 cells; SRB
  IC50: 66.7 nM

## COc1ccccc1S(=O)(=O)c1ccc(CNC(=O)c2cnc3[nH]ncc3c2)cc1 [N-({4-[(2-methoxybenzene)sulfonyl]phenyl}methyl)-1H-pyrazolo[3,4-b]pyridine-5-carboxamide]
NAMPT; NAMPT enzymatic reaction
  IC50: 68.3 nM
A2780 cells; SRB
  IC50: 61.8 nM

## O=C(NCc1ccc(S(=O)(=O)c2ccccc2)cc1)c1[nH]c2ccncc2c1Br [N-{[4-(benzenesulfonyl)phenyl]methyl}-3-bromo-1H-pyrrolo[3,2-c]pyridine-2-carboxamide]
NAMPT; NAMPT enzymatic reaction
  IC50: 306 nM
A2780 cells; SRB assay
  IC50: 7390 nM

## O=C(NCCc1ccc(S(=O)(=O)c2ccccc2)cc1)c1cc2cnccc2[nH]1 [N-{2-[4-(benzenesulfonyl)phenyl]ethyl}-1H-pyrrolo[3,2-c]pyridine-2-carboxamide]
NAMPT; NAMPT enzymatic reaction
  IC50: 410 nM
A2780 cells; SRB assay
  IC50: 9100 nM

## O=C(NCc1ccc(S(=O)(=O)c2cncc3ccccc23)cc1)c1cc2cnccc2[nH]1 [N-{[4-(isoquinoline-4-sulfonyl)phenyl]methyl}-1H-pyrrolo[3,2-c]pyridine-2-carboxamide]
NAMPT; NAMPT enzymatic assay
  IC50: 10.9 nM
A2780 cells; SRB
  IC50: 1.6 nM

## O=C(NCc1ccc(S(=O)(=O)c2ccc(F)c(C(F)(F)F)c2)cc1)c1cc2cnccc2[nH]1
NAMPT; NAMPT enzymatic assay
  IC50: 16.4 nM
A2780 cells; SRB
  IC50: 4.3 nM
